Measured values taken from PubChem BioAssay (NCI).
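Where inhibition never reached the appropriate level, the endpoint shown equals the highest concentration tested. Otherwise, values were interpolated linearly from a five-concentration, 48-hour dose response in 96-well plates. GI50 is the concentration that inhibits growth by half. TGI marks complete inhibition of growth.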

What was measured:
Assay in all cases: DTP human tumour cell line panel, 48 h
K-562 leukemia = test system: K-562 leukemia
SK-MEL-28 melanoma = test system: SK-MEL-28 melanoma
OVCAR-8 ovarian = test system: OVCAR-8 ovarian
MDA-MB-231 breast = test system: MDA-MB-231 breast
OVCAR-4 ovarian = test system: OVCAR-4 ovarian
PC-3 prostate = test system: PC-3 prostate
BT-549 breast = test system: BT-549 breast
EKVX NSCLC = test system: EKVX NSCLC
HCT-116 colon = test system: HCT-116 colon
UACC-62 melanoma = test system: UACC-62 melanoma
SW-620 colon = test system: SW-620 colon
KM12 colon = test system: KM12 colon
SK-OV-3 ovarian = test system: SK-OV-3 ovarian
NCI-H460 lung = test system: NCI-H460 lung
RPMI-8226 leukemia = test system: RPMI-8226 leukemia
NCI-H226 lung = test system: NCI-H226 lung
COLO 205 colon = test system: COLO 205 colon
DU-145 prostate = test system: DU-145 prostate
MDA-MB-435 = test system: MDA-MB-435
SN12C renal = test system: SN12C renal
CCRF-CEM leukemia = test system: CCRF-CEM leukemia
SF-268 CNS = test system: SF-268 CNS
MCF7 breast = test system: MCF7 breast
CAKI-1 renal = test system: CAKI-1 renal
SNB-19 CNS = test system: SNB-19 CNS
NCI/ADR-RES ovarian = test system: NCI/ADR-RES ovarian
HS 578T breast = test system: HS 578T breast
HL-60(TB) leukemia = test system: HL-60(TB) leukemia
HOP-92 NSCLC = test system: HOP-92 NSCLC

Q: How did the GI50 (K-562 leukemia) turn out when CC(=C(c1ccc(OCCCN(C)C)cc1)c1ccc(OCCCN(C)C)cc1)c1ccccc1 was run?
A: 621 nM

Q: What about the TGI (K-562 leukemia) of the same compound?
A: 22000 nM

Q: And the GI50 (SK-MEL-28 melanoma)?
A: 376 nM

Q: And the TGI (SK-MEL-28 melanoma)?
A: 685 nM

Q: What about the GI50 (OVCAR-8 ovarian) of the same compound?
A: 979 nM

Q: And the TGI (OVCAR-8 ovarian)?
A: 3760 nM

Q: And the GI50 (MDA-MB-231 breast)?
A: 420 nM

Q: And the TGI (MDA-MB-231 breast)?
A: 907 nM

Q: And the GI50 (OVCAR-4 ovarian)?
A: 571 nM

Q: And the TGI (OVCAR-4 ovarian)?
A: 1800 nM

Q: And the GI50 (PC-3 prostate)?
A: 818 nM

Q: And the TGI (PC-3 prostate)?
A: 3280 nM

Q: What about the GI50 (BT-549 breast) of the same compound?
A: 2440 nM

Q: And the TGI (BT-549 breast)?
A: 5420 nM

Q: And the GI50 (EKVX NSCLC)?
A: 2430 nM

Q: What about the TGI (EKVX NSCLC) of the same compound?
A: 5280 nM

Q: And the GI50 (HCT-116 colon)?
A: 370 nM

Q: And the TGI (HCT-116 colon)?
A: 847 nM

Q: And the GI50 (UACC-62 melanoma)?
A: 377 nM

Q: What about the TGI (UACC-62 melanoma) of the same compound?
A: 709 nM

Q: What about the GI50 (SW-620 colon) of the same compound?
A: 339 nM

Q: And the TGI (SW-620 colon)?
A: 708 nM

Q: What about the GI50 (KM12 colon) of the same compound?
A: 771 nM

Q: What about the TGI (KM12 colon) of the same compound?
A: 2690 nM

Q: And the GI50 (SK-OV-3 ovarian)?
A: 3510 nM

Q: And the TGI (SK-OV-3 ovarian)?
A: 6790 nM

Q: And the GI50 (NCI-H460 lung)?
A: 431 nM

Q: What about the TGI (NCI-H460 lung) of the same compound?
A: 1030 nM

Q: And the GI50 (RPMI-8226 leukemia)?
A: 608 nM

Q: What about the TGI (RPMI-8226 leukemia) of the same compound?
A: 1820 nM

Q: What about the GI50 (NCI-H226 lung) of the same compound?
A: 3890 nM

Q: And the TGI (NCI-H226 lung)?
A: 8050 nM

Q: And the GI50 (COLO 205 colon)?
A: 396 nM

Q: What about the TGI (COLO 205 colon) of the same compound?
A: 744 nM

Q: And the GI50 (DU-145 prostate)?
A: 1100 nM

Q: What about the TGI (DU-145 prostate) of the same compound?
A: 3820 nM

Q: And the GI50 (MDA-MB-435)?
A: 470 nM

Q: What about the TGI (MDA-MB-435) of the same compound?
A: 1150 nM

Q: What about the GI50 (SN12C renal) of the same compound?
A: 2440 nM

Q: What about the TGI (SN12C renal) of the same compound?
A: 5290 nM

Q: What about the GI50 (CCRF-CEM leukemia) of the same compound?
A: 438 nM

Q: What about the TGI (CCRF-CEM leukemia) of the same compound?
A: 1130 nM

Q: What about the GI50 (SF-268 CNS) of the same compound?
A: 609 nM

Q: What about the TGI (SF-268 CNS) of the same compound?
A: 3100 nM

Q: What about the GI50 (MCF7 breast) of the same compound?
A: 213 nM

Q: What about the TGI (MCF7 breast) of the same compound?
A: 655 nM

Q: And the GI50 (CAKI-1 renal)?
A: 515 nM

Q: What about the TGI (CAKI-1 renal) of the same compound?
A: 1760 nM

Q: What about the GI50 (SNB-19 CNS) of the same compound?
A: 835 nM

Q: And the TGI (SNB-19 CNS)?
A: 3240 nM

Q: And the GI50 (NCI/ADR-RES ovarian)?
A: 1770 nM

Q: And the TGI (NCI/ADR-RES ovarian)?
A: 4650 nM

Q: What about the GI50 (HS 578T breast) of the same compound?
A: 448 nM

Q: What about the TGI (HS 578T breast) of the same compound?
A: 1780 nM

Q: What about the GI50 (HL-60(TB) leukemia) of the same compound?
A: 389 nM

Q: What about the TGI (HL-60(TB) leukemia) of the same compound?
A: 1050 nM

Q: And the GI50 (HOP-92 NSCLC)?
A: 508 nM

Q: What about the TGI (HOP-92 NSCLC) of the same compound?
A: 3280 nM
